Laboratory results as given in patent US6500819B2, “Bicyclolactam compounds, use thereof and intermediates for preparing thereof” (Taiho Pharmaceutical Company Limited, priority 1994, dated 2002).

Key:
[1] = test system: ddY mice; assay: Sedative effect (spontaneous locomotor activity), second part
Experimental: Sedative Effect (Spontaneous locomotor activity)
(§1) Compound 1′a-1, the comparison compound, diazepam or buspirone was suspended in a 0.5% sodium carboxymethyl cellulose solution, and the suspension was orally administered to 3- to 4-week-old male ddY mice (in groups of 5) in a volume of 10 ml/kg one hour before the start of experiment.
The test was conducted with reference to a method described in “Evaluation of Medicinal Efficacies (1), Pharmacological Test Method (I), Basic Lectures on Development of Pharmaceuticals,” 50˜54(1971). More specifically, the group of mice were given the test drug and thereafter measured the amount of spontaneous locomotor activity for 10 minutes per mouse using Animex MK-110 (Muromachi Kikai Co., Ltd.).

[2] = test system: ddY mice; assay: Anticonvulsant effect (pentylenetetrazol-induced convulsion method), second part; assay type: in vivo; conditions: for Anticonvulsant effect (in words): oral, dose of 300 mg/kg; for ED50: Mus musculus, 1 h, read-out: ED50, anticonvulsant effect (no death within 60 minutes)
Experimental: Anticonvulsant Effect (Pentylenetetrazol-induced Convulsion Method)
Compound 1′a-1, the comparison compound, diazepam or j buspirone was suspended, in a 0.5% sodium carboxymethyl cellulose solution, and the suspension was orally administered to 3- to 4-week-old maple ddY mice (in groups of 6) in a volume of 10 ml/kg one hour before the start of experiment.
The test was conducted with reference to a method described in “Evaluation of Medicinal Efficacies (1), Pharmacological Test Method (I), Basic Lectures on Development of Pharmaceuticals,” 167˜172(1971).

[3] = test system: ddY mice; assay: Effect on central nervous system depressant (ethanol enhancing method), second part
Experimental: (§2) Effect on central nervous system depressant (Ethanol enhancing method)
(§3) Compound 1′a-1, the comparison compound, diazepam or buspirone was suspended in a 0.5% sodium carboxymethyl cellulose solution, and the suspension was orally administered to 3- to 4-week-old male ddY mice (in groups of 6) in a volume of 10 ml/kg one hour before the start of experiment.
(§4) The test was conducted with reference to a method described in Japan. J. Pharmacol., 49, 337˜349(1989). More specifically, the group of mice were intraperitoneally given 25% ethanol at a dose of 20 ml/kg and checked for the time interval between loss and recovery of the righting reflex.

[4] = test system: ddY mice; assay: Muscle relaxant effect (traction method), second part
Experimental: (§5) Muscle Relaxant Effect (Traction Method)
as §1
(§6) With reference to a method described in Japan. J. Pharmacol., 49. 337˜349(1989), the foreleg of the mouse was hung on a horizontal wire, having a diameter of 1.2 mm and fixed at a level of 30 cm, three times consecutively. […] Thus, ED5 0 was determined for evaluation. […] Diazepam and buspirone were 2.2 mg/kg and 427.8 mg/kg, respectively, in ED5 0.

[5] = test system: ddY mice; assay: Acute toxicity test (number of deaths), second part; assay type: in vivo; conditions: 6 mice, observed for 3 days
[6] = Acute toxicity test (LD50), first part; assay type: in vivo; conditions: mouse, in vivo; oral, male ddY mice, observed for 3 days
[7] = test system: Wistar rats; assay: Anticonflict test (first part, Test Example 1); assay type: in vivo; conditions: for Frequency of water drinking behavior: 1 h before test, value relative to control = 100; for Anxiolytic effect in the anticonflict test (in words): oral, compounds at doses of 0.001 to 1.0 mg/kg
Experimental: (§7) Wistar rats (males weighing 140 to 160 g) were used for experiment in groups of 11 to 14.
The test compound, diazepam or buspirone was suspended in a 0.5 % sodiumn carboxymethyl cellulose solution, and the suspension was orally given to the animal in a volume of 5 mnl/kg one hour before the start of experiment.
With reference to a method described in “Process in Anxiolytics and Antidepresants,” ediled by Showa Ueki and Tatsuo Furukawa, Ishiyaku Shuppansha, 56-59 (1981) , the agents were tested using experimental boxes having a grid floor and a metal drinking tube in the floor. No water was supplied to the rats for 48 hours before the experiment. Upon lapse of first 24 hours, each group of rats were placed into the experimental box, permitted access to water for 30 seconds and caused to recognize the metal drinking tube. Upon lapse of further 24 hours with access to water prevented, the rats were placed into the box again and permitted access to water on condition that an electric current was passed between the metal drinking tube and the grid to give an electroshock for every 20 times of water drinking behavior to measure the frequency of water drinking behavior for 3 minutes.
The frequency is expessed by a value relative to the frequency of the control which is taken as 100.

[8] = test system: ddY mice; assay: Anticonvulsant effect (pentylenetetrazol-induced convulsion method), first part; assay type: in vivo; conditions: oral, dose of 300 mg/kg
Experimental: Anticonvulsant Effect (Pentylenetetrazol-Induced Convulsion Method)
(§8) Compound 3, Compound 13, diazepam or buspirone was suspended in a 0.5 % sodium carboxymethyl cellulose solution, and the suspension was orally administered to 3- to 4-week-old male ddY mice (in groups of 6) in a volume of 10 ml/kg one hour before the start of experiment.
The test was conducted with reference to a method described in “Evaluation of Medicinal Efficacies (1), Pharmacological Test Method (1), Basic lectures on Development of Pharmaceuticals,” 167˜172(1971).

[9] = test system: ddY mice; assay: Effect on central nervous system depressant: ethanol enhancing method, first part; conditions: mouse, in vivo, po, 300 mg/kg
Experimental: (§9) Effect On Central Nervous System Depressant
(§10) b. Ethanol Enhancing Method
as §8
(§11) The test was conducted with reference to a method described in Japan. J. Pharmacol., 49, 337˜349(1989). More specifically, the group of mice were intraperitoneally given 25 % ethanol at a dose of 20 ml/kg and checked for the time interval between loss and recovery of the righting reflex.

[10] = test system: ddY mice; assay: Muscle relaxant effect (traction method), first part; conditions: mouse, in vivo, po, 300 mg/kg
Experimental: as §5
(§12) Compound 3, Compound 13, diazepam or buspirone was suspended in a 0.5 % sodium carboxymethyl cellulose solution, and the suspension was orally administered to 3- to 4-week-old male ddY mice (in groups of 5) in a volume of 10 ml/kg one hour before the start of experiment.
as §6

[11] = test system: Wistar rats; assay: Elevated plus maze test; assay type: in vivo; conditions: for Ratio of entries into open arm: 1 h before test, relative to control = 100
Experimental: Wistar rats (males weighing 170 to 220 g) were used for experiment in groups of 4 to 9.
The test compound, diazepam or buspirone was suspended in a 0.5 %) sodium carboxymethyl cellulose solution, and the suspension was orally given to the animal in a volume of 5 ml/kg one hour before the start of experiment.
The test was conducted using an experimental device, Model BTA-2, Behavior Analysis System (product of Muromachi Kikai Co., Ltd.) with reference to a method described in Psychopharmacology, 99, 48˜53(1989). […] Each group of rats orally given the test drug were placed in the center square, and the behavior of the animals was recorded for 5 minutes using a behavior analyzer. The ratio of the number of entries into the open arm to the number of entries into all the arms was determined for evaluating the anxiolytic effect.
The ratio of entries into the open arm is expressed by a value relative to the ratio attained by the control which is taken as 100.

[12] = in vivo; conditions: male, ddY, mouse, in vivo
Experimental: as §9
a. Pentobarbital Anesthetic Method
Compound 3, Compound 13, diazepam or buspirone was suspended in a 0.5 % sodium carboxymethyl cellulose solution, and the suspension was orally administered to 3- to 4-week-old male ddY mice (in groups of 5 to 10) in a volume of 10 ml/kg one hour before the start of experiment.
The test was conducted with reference to a method described in “Evaluation of Medicinal Efficacies (1), Pharmacological Test Method (1), Basic lectures on Development of Pharmaceuticals,” 144˜145(1971). More specifically, the group of mice were intraperitoneally given pentobarbital at a dose of 40 mg/kg and checked for sleeping time.

[13] = test system: ddY mice; assay: Sedative effect (spontaneous locomotor activity), first part; conditions: mouse, in vivo, po, 300 mg/kg
Experimental: (§13) Sedative Effect (Spontaneous Locomotor Activity)
as §12
(§14) The test was conducted with reference to a method described in “Evaluation of Medicinal Efficacies (1), Pharmacological Test Method (1), Basic Lectures on Development of Pharmaceuticals,” 50˜54(1971). More specifically, the group of mice were given the test drug and thereafter measured the amount of spontaneous locomotor activity for 10 minutes per mouse rising Animex MK-110 (product of Muromachi Kikai Co., Ltd.).

[14] = Effect on central nervous system depressant: ethanol enhancing method, first part; conditions: male, ddY, mouse, in vivo
Experimental: as §9, §10, §8, §11

[15] = test system: Wistar rats; assay: Anticonflict test (second part, relieving rate of anxiety); assay type: in vivo; conditions: oral, dose of 1.0 mg/kg
Experimental: as §7
No water was supplied to the rats for 48 hours before the experiment. Upon lapse of first 24 hours, each group of rats were placed into the experimental box, permitted access to water for 30 seconds and caused to recognize the metal drinking tube. Upon lapse of further 24 hours with access to water prevented, the rats were placed into the box again and permitted access to water on condition that an electric current was passed between the metal drinking tube and the grid to give an electroshock for every 20 times of water drinking behavior to measure the frequency of water drinking behavior for 3 minutes. Anxiolytic effect was evaluated as relieving rate of anxiety as calculated by the following equation.

[16] = Muscle relaxant effect (traction method), first part; conditions: male, ddY, mouse, in vivo, po
Experimental: as §5, §12, §6

[17] = Effect on central nervous system depressant (ethanol enhancing method), second part; conditions: male, ddY, mouse, in vivo
Experimental: as §2, §3, §4

[18] = Sedative effect (spontaneous locomotor activity), first part; conditions: male, ddY, mouse, in vivo, po
Experimental: as §13, §12, §14

[19] = Muscle relaxant effect (traction method), second part; conditions: male, ddY, mouse, in vivo, po
Experimental: as §5, §1, §6

O=C1CC2CCCCC2N1 (stereo not drawn) [Comparison Compound, 2-azabicyclo[3.4.0]nonane-2-one]
Sedative effect (in words) ([1]; oral, dose of 300 mg/kg): no sedative effect
Anticonvulsant effect (in words) [2]: no anticonvulsant effect
Ethanol enhancing effect (in words) ([3]; oral, dose of 300 mg/kg): no ethanol enhancing effect
Muscle relaxant effect (in words) ([4]; oral, dose of 300 mg/kg): no muscle relaxant effect

COc1ccc(C(=O)N2C(=O)CC[C@H]3[C@H](O)CC[C@H]32)cc1 (racemic) [Compound 1′a-1, (1RS, 6RS, 7RS)-7-hydroxy-2-(4-methoxybenzoyl)-2-azabicyclo-[4.3.0]nonan-3-one]
Number of death ([5]; dose 2000 mg/kg oral): 0
Number of death ([5]; dose 3000 mg/kg oral): 2
Sedative effect (in words) ([1]; mouse, in vivo, po, 300 mg/kg): no sedative effect
Anticonvulsant effect (in words) [2]: no anticonvulsant effect
Ethanol enhancing effect (in words) ([3]; mouse, in vivo, po, 300 mg/kg): no ethanol enhancing effect
Muscle relaxant effect (in words) ([4]; mouse, in vivo, po, 300 mg/kg): no muscle relaxant effect

COc1ccc(C(=O)N2C(=O)CC3CCCCC32)cc1 (stereo not drawn) [Compound 11, 7-(4-methoxybenzoyl)-7-azabicyclo[4.3.0]nonane-8-one]
LD50 at 3 days [6]: > 2000 mg/kg
Frequency of water drinking behavior ([7]; dose 1.0 mg/kg oral): 133%
Anxiolytic effect in the anticonflict test (in words) [7]: increase in the frequency of water drinking behavior

COc1ccc(C(=O)N2C(=O)CCC3CCCC32)cc1 (stereo not drawn) [Compound 3, 2-(4-methoxybenzoyl)-2-azabicyclo[4.3.0]nonane-3-one]
Anticonvulsant effect (in words) [8]: no anticonvtilsant effect
Ethanol enhancing effect (in words) [9]: no ethanol enhancing effect
Muscle relaxant effect (in words) [10]: no muscle relaxant effect
Ratio of entries into open arm ([11]; dose 0.001 oral): 195
Ratio of entries into open arm ([11]; dose 0.01 oral): 219
Ratio of entries into open arm ([11]; dose 0.1 oral): 248
Anxiolytic effect in the elevated plus maze (in words) ([11]; oral, dose of 0.001 mg/kg or greater): increase in the number of entries into the open arm
ED50 at 1 h [12]: ≥ 300 mg/kg
LD50 at 3 days [6]: > 2000 mg/kg
Sedative effect (in words) [13]: no sedative effect
Frequency of water drinking behavior ([7]; dose 0.001 mg/kg oral): 126%
Frequency of water drinking behavior ([7]; dose 0.01 mg/kg oral): 162%
Frequency of water drinking behavior ([7]; dose 0.1 mg/kg oral): 164%
Frequency of water drinking behavior ([7]; dose 1.0 mg/kg oral): 166%
Anxiolytic effect in the anticonflict test (in words) [7]: increase in the frequency of water drinking behavior

CN1C(=O)CN=C(c2ccccc2)c2cc(Cl)ccc21 [Diazepam, diazepam, reference compound]
ED6O, sedative effect (spontaneous locomotor activity up to 50% of control) ([1]; oral, mice, 1 h before test): 1.7 mg/kg
ED50 at 1 h [14]: 0.48 mg/kg
Anxiolytic effect in the anticonflict test (in words) [15]: almost ineffective
ED50 at 1 h [16]: 2.2 mg/kg
ED50 [2]: 0.35 mg/kg
Ratio of entries into open arm ([11]; dose 1.0 oral): 103
Ratio of entries into open arm ([11]; dose 10.0 oral): 144
ED50 at 1 h [12]: 0.53 mg/kg
ED50 at 1 h [17]: 0.48 mg/kg
ED50 at 1 h [18]: 1.7 mg/kg
Frequency of water drinking behavior ([7]; dose 1.0 mg/kg oral): 96%
Anxiolytic effect in the anticonflict test (in words) [7]: almost ineffective
ED50 at 1 h [19]: 2.2 mg/kg

COc1ccc(C(=O)N2C(=O)CC[C@@H]3[C@H]2CC[C@H]3OCc2ccccc2)cc1 (racemic) [Compound 4a-1, (1RS, 6RS, 7RS)-7-benzyloxy-2-(4-methoxybenzoyl)-2-azabicyclo[4.3.0]nonan-3-one]
melting point: 109.5 °C

COc1ccc(C(=O)N2C(=O)CCC3CCCCC32)cc1 (stereo not drawn) [Compound 1, 2-(4-methoxybenzoyl)-2-azabicyclo[4.4.0)decane-3-one]
LD50 at 3 days [6]: > 2000 mg/kg
Frequency of water drinking behavior ([7]; dose 0.01 mg/kg oral): 138%
Frequency of water drinking behavior ([7]; dose 0.1 mg/kg oral): 140%
Frequency of water drinking behavior ([7]; dose 1.0 mg/kg oral): 122%
Anxiolytic effect in the anticonflict test (in words) [7]: increase in the frequency of water drinking behavior

O=C1CC2(CCCC2)CC(=O)N1CCCCN1CCN(c2ncccn2)CC1 [Buspirone, buspirone, reference compound]
ED6O, sedative effect (spontaneous locomotor activity up to 50% of control) ([1]; male, ddY, mouse, in vivo, po, 1 h): 149.7 mg/kg
Anxiolytic effect in the anticonflict test (in words) [15]: almost ineffective
ED50 [2]: ≥ 300 mg/kg
Ratio of entries into open arm ([11]; dose 1.0 oral): 98
Ratio of entries into open arm ([11]; dose 10.0 oral): 93
Frequency of water drinking behavior ([7]; dose 1.0 mg/kg oral): 103%
Anxiolytic effect in the anticonflict test (in words) [7]: almost ineffective
